Where “and” joins values, the source holds several entries; their conditions need not be identical. Identical values can stand only once.
Assays:
Format in all cases: in vivo
[1] = test system: Viola tricolor (wild pansy); experiment: Greenhouse postemergence herbicidal effect on VIOTR
Text: (§1) Seeds of the desired test plant species were planted in a 90:10% v/v (volume/volume) mixture of PRO-MIX® BX (Premier Tech Horticulture, Quakertown, Pa., USA) and PROFILE® GREENS GRADE™ (Profile Products LLC, Buffalo Grove, Ill., USA) planting mixture, which typically has a pH of 5.2 to 6.2 and an organic matter content of at least 50 percent, in plastic pots with a surface area of 103.2 square centimeters (cm^2). In some aspects, to help ensure good germination and healthy plants, a fungicide treatment and/or other chemical or physical treatment was applied. The plants were grown for 7-36 days (d) in a greenhouse with an approximate 14-hour (h) photoperiod which was maintained at about 23° C. during the day and 22° C. during the night. Nutrients and water were added on a regular basis and supplemental lighting was provided with overhead metal halide 1000-Watt lamps as necessary. The plants were employed for testing when they reached the second or third true leaf stage.
(§2) Emulsifiable concentrates of each of each pyridine carboxylate herbicide (Compound A or Compound B) were prepared at 100 grams acid equivalent per liter (g ae/L). The emulsifiable concentrates also included a safener, cloquintocet-mexyl, at 120 grams active ingredient per liter (g ai/L). An aliquot of each emulsifiable concentrate was placed in a 25 mL glass vial and diluted with an aqueous mixture of 1.25% (v/v) ACTIROB® B esterified rapeseed oil (Bayer Crop Science, Research Triangle Park, N.C., USA) or MSO® Concentrate with LECI-TECH® methylated soybean oil (Loveland Products, Loveland, Colo., USA) to obtain concentrated stock solutions at the highest application rate for each herbicide, based upon a 12 milliliter (mL) application volume at a rate of 187 liters per hectare (L/ha). The concentrated stock solutions were further diluted with an aqueous mixture of 1.25% v/v ACTIROB® B or MSO® Concentrate with LECI-TECH® to obtain stock solutions at reduced application rates for each herbicide. Spray solutions of the herbicide combinations (Compound A or Compound B plus the PGR) were prepared by adding weighed amounts or aliquots of the PGR to the stock solutions of Compound A or Compound B to form 12-mL spray solutions in two-way combinations.
(§3) The spray solutions were applied to the plant material with an overhead Mandel track sprayer equipped with 8002E nozzles calibrated to deliver 187 L/ha over an application area of 0.503 square meters (m^2) at a spray height of 18 inches (43 centimeters (cm)) above the average plant canopy. Control plants were sprayed in the same manner with the solvent blank. All pyridine carboxylate herbicide (component a) application rates are given as “g ae/ha” and all PGR (component b) application rates are given as “g ai/ha.”
(§4) The treated plants and control plants were placed in a greenhouse as described above and watered by sub-irrigation to prevent wash-off of the test compounds. After 20-22 d, the condition of the test plants as compared with that of the control plants was determined visually and scored on a scale of 0 to 100 percent where 0 corresponds to no injury and 100 corresponds to complete kill.

[2] = test system: Polygonum convolvulus (wild buckwheat); experiment: Greenhouse postemergence herbicidal effect on POLCO
Text: as §1, §2, §3, §4

[3] = test system: Cirsium arvense (Canada thistle); experiment: Greenhouse postemergence herbicidal effect on CIRAR
Text: as §1, §2, §3, §4

[4] = test system: Glycine max (soybean); experiment: Greenhouse postemergence herbicidal effect on GLXMA
Text: as §1, §2, §3, §4

[5] = test system: Ipomoea hederacea (ivyleaf morningglory); experiment: Greenhouse postemergence herbicidal effect on IPOHE
Text: as §1
(§5) Emulsifiable concentrates of each of each pyridine carboxylate herbicide (Compound A or Compound B) were prepared at 100 grams acid equivalent per liter (g ae/L). The emulsifiable concentrates also included a safener, cloquintocet-mexyl, at 120 grams active ingredient per liter (g ai/L). […]
as §4

[6] = test system: Amaranthus retroflexus (pigweed); experiment: Greenhouse postemergence herbicidal effect on AMARE
Text: as §1, §2, §3, §4

[7] = test system: Helianthus annuus (common sunflower); experiment: Greenhouse postemergence herbicidal effect on HELAN
Text: as §1, §2, §3, §4

[8] = test system: Kochia scoparia (kochia); experiment: Greenhouse postemergence herbicidal effect on KCHSC
Text: as §1, §2, §3, §4

[9] = test system: Stellaria media (chickweed); experiment: Greenhouse postemergence herbicidal effect on STEME
Text: as §1, §2, §3, §4

[10] = test system: Brassica napus (spring rape); experiment: Greenhouse postemergence herbicidal effect on BRSNN
Text: as §1, §2, §3, §4

[11] = test system: Setaria faberi (giant foxtail); experiment: Greenhouse postemergence herbicidal effect on SETFA
Text: as §1, §2, §3, §4

[12] = test system: Chenopodium album L. (common lambsquarters); experiment: Greenhouse postemergence herbicidal effect on CHEAL
Text: as §1, §2, §3, §4

[13] = test system: Abutilon theophrasti (velvetleaf); experiment: Greenhouse postemergence herbicidal effect on ABUTH
Text: as §1, §2, §3, §4

[14] = test system: Euphorbia heterophylla (poinsettia); experiment: Greenhouse postemergence herbicidal effect on EPHHL
Text: as §1, §2, §3, §4

[15] = test system: Sorghum vulgare (grain sorghum); conditions: Compound A 0 g/ha, Ethephon 140 g/ha
Text: as §1, §2, §3, §4

[16] = test system: Zea mays (maize); conditions: Compound A 0 g/ha, Ethephon 140 g/ha
Text: as §1, §2, §3, §4

[17] = test system: Cyperus esculentus (yellow nutsedge); experiment: Greenhouse postemergence herbicidal effect on CYPES; conditions: Compound A 0 g/ha, Ethephon 140 g/ha
Text: as §1, §5
as §4, with “kill. […]” for “kill.”

[18] = test system: Digitaria sanguinalis (large crabgrass); experiment: Greenhouse postemergence herbicidal effect on DIGSA; conditions: Compound A 0 g/ha, Ethephon 140 g/ha
Text: as §1, §5
as §4, with “kill. […]” for “kill.”

[19] = test system: Echinochloa crus-galli (barnyard grass); experiment: Greenhouse postemergence herbicidal effect on ECHCG; conditions: Compound A 0 g/ha, Ethephon 140 g/ha
Text: as §1, §5
as §4, with “kill. […]” for “kill.”

[20] = test system: Rumex obtusifolia (broadleaf dock); experiment: Greenhouse postemergence herbicidal effect on RUMOB; conditions: Compound A 0 g/ha, Ethephon 140 g/ha
Text: as §1, §5
as §4, with “kill. […]” for “kill.”

[21] = test system: rice (ORYSA); conditions: Compound A 0 g/ha, Ethephon 140 g/ha
Text: as §1, §5
as §4, with “kill. […]” for “kill.”

[22] = Compound A 0 g/ha, Ethephon 140 g/ha

With `C[N+](C)(C)CCCl.[Cl-]` [Chlormequat, Chlormequat chloride, reference compound] the “% visual injury Obs” value ([1]; PGR 560 g ai/ha alone) was 0% and 3%, the “% visual injury Obs” value ([2]; PGR 560 g ai/ha alone) was 0% and 5% and the “% visual injury Obs” value ([3]; PGR 560 g ai/ha alone) was 0%. The “% visual injury Obs” value ([4]; PGR 560 g ai/ha alone) was 10%, the “% visual injury Obs” value ([5]; PGR 560 g ai/ha alone) was 0% and the “% visual injury Obs” value ([6]; PGR 560 g ai/ha alone) was 0%. For the same molecule, the “% visual injury Obs” value ([7]; PGR 560 g ai/ha alone) was 0%, the “% visual injury Obs” value ([8]; PGR 560 g ai/ha alone) was 0% and the “% visual injury Obs” value ([9]; PGR 560 g ai/ha alone) was 0%. For the same molecule, the “% visual injury Obs” value ([10]; PGR 560 g ai/ha alone) was 0%, the “% visual injury Obs” value ([11]; PGR 560 g ai/ha alone) was 0% and the “% visual injury Obs” value ([12]; PGR 560 g ai/ha alone) was 0%.
With `C#CCOC(=O)c1nc(-c2ccc3cc[nH]c3c2F)c(F)c(N)c1Cl` [Compound B, propargyl 4-amino-3-chloro-5-fluoro-6-(7-fluoro-1H-indol-6-yl)pyridine-2-carboxylate] the “% visual injury Obs” value ([1]; herbicide 7.5 g ae/ha alone) was 10%, the “% visual injury Obs” value ([1]; herbicide 10 g ae/ha alone) was 40% and the “% visual injury Obs” value ([13]; herbicide 7.5 g ae/ha alone) was 68%. The “% visual injury Obs” value ([13]; herbicide 10 g ae/ha alone) was 68%, the “% visual injury Obs” value ([2]; herbicide 7.5 g ae/ha alone) was 73% and the “% visual injury Obs” value ([2]; herbicide 10 g ae/ha alone) was 80%. For the same molecule, the “% visual injury Obs” value ([14]; herbicide 7.5 g ae/ha alone) was 83%, the “% visual injury Obs” value ([14]; herbicide 10 g ae/ha alone) was 99% and the “% visual injury Obs” value ([3]; herbicide 7.5 g ae/ha alone) was 45%. For the same molecule, the “% visual injury Obs” value ([3]; herbicide 10 g ae/ha alone) was 45%, the “% visual injury Obs” value ([7]; herbicide 7.5 g ae/ha alone) was 85% and the “% visual injury Obs” value ([7]; herbicide 10 g ae/ha alone) was 100%. For the same molecule, the “% visual injury Obs” value ([8]; herbicide 7.5 g ae/ha alone) was 68%, the “% visual injury Obs” value ([8]; herbicide 10 g ae/ha alone) was 80% and the “% visual injury Obs” value ([9]; herbicide 7.5 g ae/ha alone) was 10%. For the same molecule, the “% visual injury Obs” value ([9]; herbicide 10 g ae/ha alone) was 93%, the “% visual injury Obs” value ([10]; herbicide 7.5 g ae/ha alone) was 68% and the “% visual injury Obs” value ([10]; herbicide 10 g ae/ha alone) was 85%. The “% visual injury Obs” value ([11]; herbicide 7.5 g ae/ha alone) was 70%, the “% visual injury Obs” value ([11]; herbicide 10 g ae/ha alone) was 55% and the “% visual injury Obs” value ([12]; herbicide 7.5 g ae/ha alone) was 85%. The “% visual injury Obs” value ([12]; herbicide 10 g ae/ha alone) was 90%.
For `O=P(O)(O)CCCl` [Ethephon, reference compound], the “Herbicidal Effects (% visual injury) VIOTR Obs” value [1, 22] was 0%, the “Herbicidal Effects (% visual injury) ABUTH Obs” value [13, 22] was 0% and the “Herbicidal Effects (% visual injury) POLCO Obs” value [2, 22] was 0%. For the same molecule, the “Herbicidal Effects (% visual injury) EPHHL Obs” value [14, 22] was 0%, the “Herbicidal Effects (% visual injury) CIRAR Obs” value [3, 22] was 0% and the “Herbicidal Effects (% visual injury) AMARE Obs” value [6, 22] was 0%. The “Herbicidal Effects (% visual injury) HELAN Obs” value [7, 22] was 0%, the “Herbicidal Effects (% visual injury) KCHSC Obs” value [8, 22] was 0% and the “Herbicidal Effects (% visual injury) SORVU Obs” value [15] was 0%. The “Herbicidal Effects (% visual injury) ZEAMX Obs” value [16] was 0%, the “Herbicidal Effects (% visual injury) STEME Obs” value [9, 22] was 0% and the “Herbicidal Effects (% visual injury) BRSNN Obs” value [10, 22] was 0%. For the same molecule, the “Herbicidal Effects (% visual injury) SETFA Obs” value [11, 22] was 0%, the “Herbicidal Effects (% visual injury) CHEAL Obs” value [12, 22] was 0% and the “Herbicidal Effects (% visual injury) CYPES Obs” value [17] was 0%. The “Herbicidal Effects (% visual injury) DIGSA Obs” value [18] was 0%, the “Herbicidal Effects (% visual injury) ECHCG Obs” value [19] was 0% and the “Herbicidal Effects (% visual injury) RUMOB Obs” value [20] was 0%. For the same molecule, the “Herbicidal Effects (% visual injury) ORYSA Obs” value [21] was 0%.
With `O=C(O)Cc1c[nH]c2ccccc12` [IAA, indol-3-ylacetic acid, reference compound] the “% visual injury Obs” value ([1]; PGR 140 g ai/ha alone) was 0%, the “% visual injury Obs” value ([13]; PGR 140 g ai/ha alone) was 0% and the “% visual injury Obs” value ([2]; PGR 140 g ai/ha alone) was 0%. The “% visual injury Obs” value ([3]; PGR 140 g ai/ha alone) was 0%, the “% visual injury Obs” value ([4]; PGR 140 g ai/ha alone) was 0% and the “% visual injury Obs” value ([5]; PGR 140 g ai/ha alone) was 0%. The “% visual injury Obs” value ([6]; PGR 140 g ai/ha alone) was 0%, the “% visual injury Obs” value ([7]; PGR 140 g ai/ha alone) was 0% and the “% visual injury Obs” value ([8]; PGR 140 g ai/ha alone) was 0%. For the same molecule, the “% visual injury Obs” value ([9]; PGR 140 g ai/ha alone) was 5%, the “% visual injury Obs” value ([10]; PGR 140 g ai/ha alone) was 0% and the “% visual injury Obs” value ([11]; PGR 140 g ai/ha alone) was 0%.
In the case of `O=C(O)CCCc1c[nH]c2ccccc12` [IBA, indol-3-butyric acid, reference compound], the “% visual injury Obs” value ([1]; PGR 140 g ai/ha alone) is reported as 3%, the “% visual injury Obs” value ([13]; PGR 140 g ai/ha alone) is reported as 0% and the “% visual injury Obs” value ([2]; PGR 140 g ai/ha alone) is reported as 0%. For the same molecule, the “% visual injury Obs” value ([3]; PGR 140 g ai/ha alone) was 0%, the “% visual injury Obs” value ([4]; PGR 140 g ai/ha alone) was 0% and the “% visual injury Obs” value ([5]; PGR 140 g ai/ha alone) was 0%. For the same molecule, the “% visual injury Obs” value ([6]; PGR 140 g ai/ha alone) was 0%, the “% visual injury Obs” value ([7]; PGR 140 g ai/ha alone) was 0% and the “% visual injury Obs” value ([8]; PGR 140 g ai/ha alone) was 0%. The “% visual injury Obs” value ([9]; PGR 140 g ai/ha alone) was 8%, the “% visual injury Obs” value ([10]; PGR 140 g ai/ha alone) was 0% and the “% visual injury Obs” value ([11]; PGR 140 g ai/ha alone) was 5%.

— US20210392890A1, “COMPOSITIONS COMPRISING PYRIDINE CARBOXYLATE HERBICIDES AND PLANT GROWTH REGULATORS” (Corteva Agriscience LLC, priority 2018, published 2021)
